Patent publication US10202379B2, “Substituted polycyclic carbamoyl pyridone derivative prodrug” (priority 2010, dated 2019)
Where two headings read alike, the source gives them in different places.

Key:
[1] = tested on: influenza virus (A/WS/33, A/Victoria/3/75 or B/Maryland/1/59); format: in vivo; conditions: oral, infected mouse, 14 days after virus infection
[2] = BA test (oral absorbability); format: in vivo; conditions: rat; for plasma concentration of the prodrug itself: oral administration, non-fasting, all plasma samples; for Parent compound BA(%): oral administration of parent compound
Description: Experimental Material and Method for Studying Oral Absorbability
(1) Animal to be used: A mouse or rat was used.
(2) Rearing conditions: Mouse and rat ingested a solid feed and sterilized tap water ad-libitum.
(3) Dose and setting of grouping: A predetermined dose was administered orally or intravenously. A group was set as follows. (a dose varied for every compound)
Oral administration 1 to 30 mg/kg (n=2 to 3)
Intravenous administration 0.5 to 10 mg/kg (n=2 to 3)
(4) Preparation of administration solution: For oral administration, a solution or suspension was administered. For intravenous administration, a compound which was solubilized was administered.
(5) Administration method: For oral administration, the administration solution was forcibly administered to the stomach by oral sonde. For intravenous administration, the administration solution was administered with a syringe equipped with an injection needle through a tail vein.
(6) Assessment item: Blood was collected with time, and a plasma drug concentration was measured using LC/MS/MS.
(7) Statistical analysis: Regarding plasma concentration transition, an area under a plasma concentration-time curve (AUC) was calculated using a non-linear minimum square method program WinNonlin (registered trademark), and bioavailability (BA) was calculated from AUC of an oral-administered group and an intervenous-administered group.

influenza virus = assay: microbe, parasite or virus in culture; format: cell-based; conditions: MDBK or MDCK cells, 3 days, WST-8
[3] = biological target: Cap-dependant Endonuclease (CEN) (RNP fraction, PB1-PB2-PA complex) (Influenza A virus (strain A/Wilson-Smith/1933 H1N1) (Influenza A virus (strain A/WS/1933 H1N1)), UniProt P15659); format: biochemical, influenza A/WSN/33 virus
[4] = unidentified influenza virus, 72 h, read-out: CPE EC50, parent compounds (Reference examples)
[5] = parent compounds (Reference examples), room temperature, 60 minutes
[6] = parent compounds (Reference examples), read-out: CPE EC50

SMILES	EC50 (influenza virus; [4]) [nM]	IC50 [3, 5] [nM]	also measured
CC(=O)Oc1c2n(ccc1=O)N([C@H]1c3ccccc3CSc3ccccc31)CN([C@H](C)C(F)(F)F)C2=O [Example 20]			ED50 of single dose (dose for 50% lethality inhibition) [1]: 4.4 mg/kg/day
CC(=O)Oc1c2n(ccc1=O)N(C1c3ccccc3CSc3ccccc31)CN(C(C)C)C2=O (stereo not shown) [Example 204]			plasma concentration of the prodrug itself [2]: a determination limit or less
CC(=O)OCOc1c2n(ccc1=O)N(C1c3ccccc3CSc3ccccc31)CN(C(C)C)C2=O (stereo not shown) [Example 114]			plasma concentration of the prodrug itself [2]: a determination limit or less
C[C@@H](N1CN([C@@H]2c3ccccc3SCc3c(F)cccc32)n2ccc(=O)c(O)c2C1=O)C(F)(F)F [Reference example 445]	4	13	Parent compound BA(%) [2]: 12.1%
CC(=O)c1cn2c(c(O)c1=O)C(=O)N([C@H](C)C(F)(F)F)CN2[C@H]1c2cc(F)c(F)cc2CSc2ccccc21 [compound 692]	9.64	36.9	
C[C@@H]1Sc2ccccc2[C@@H](N2CN([C@H](C)C(F)(F)F)C(=O)c3c(O)c(=O)ccn32)c2c(Cl)cccc21 [compound 748]	9.14	24.2	
C[C@@H](N1CN([C@H]2c3ccccc3CSc3cccc(F)c32)n2ccc(=O)c(O)c2C1=O)C(F)(F)F [Reference example 603]	15	37	
COc1cccc2c1CSc1ccccc1[C@H]2N1CN([C@H](C)C(F)(F)F)C(=O)c2c(O)c(=O)ccn21 [Reference example 600]	36	59	
O=C1c2c(O)c(=O)ccn2N(C2c3ccccc3CSc3ccccc32)CN1Cc1ncns1 (stereo not shown) [Reference example 316]	83	69	
CC(C)N1C(=O)c2c(OCc3ccccc3)c(=O)ccn2N(C2c3ccccc3CCc3ccccc32)C1c1ccc(Cl)cc1 (stereo not shown) [Reference example 527]			EC50 (influenza virus; [6]): 88 nM; IC50 [3]: 127 nM
C[C@@H](N1CN([C@@H]2c3cccc(F)c3SCc3cccc(Cl)c32)n2ccc(=O)c(O)c2C1=O)C(F)(F)F [Reference example 621]	2		IC50 [3]: 6 nM
COCCCC1N(CC(F)(F)F)C(=O)c2c(O)c(=O)ccn2N1C1c2ccc(F)cc2CCc2cc(F)ccc21 (stereo not shown) [Reference example 643]	132	163	
C[C@@H](N1CN([C@@H]2c3ccccc3SCc3c(Cl)cccc32)n2ccc(=O)c(OCOC(=O)NCCN)c2C1=O)C(F)(F)F [Example 178]			EC50 (influenza virus; [6]): 75 nM; IC50 [3]: 61 nM
C[C@@H](N1CN([C@H]2c3ccccc3SCc3cccc(N(C)C)c32)n2ccc(=O)c(O)c2C1=O)C(F)(F)F [compound 753]	18.5	109	
C[C@@H](N1CN([C@@H]2c3ccc(F)cc3SCc3cccc(Cl)c32)n2ccc(=O)c(O)c2C1=O)C(F)(F)F [compound 772]	3.68	5.22	
C[C@@H](N1CN([C@H]2c3ccccc3CCc3cccc(F)c32)n2ccc(=O)c(O)c2C1=O)C(F)(F)F [Reference example 633]	22	53	
C[C@@H](N1CN([C@H]2c3cccc(F)c3CSc3c(Cl)cccc32)n2ccc(=O)c(O)c2C1=O)C(F)(F)F [Reference example 594]	4		IC50 [3]: 11 nM; Parent compound BA(%) [2]: 5.0%

SMILES	EC50 (influenza virus; [4]) [nM]	IC50 [3, 5] [nM]	also measured
O=C1c2c(O)c(=O)ccn2N([C@@H]2c3ccccc3SCc3cccc(Cl)c32)[C@H]2COCCN12 [compound 682]	3.5	19.7	
C[C@@H](N1CN([C@H]2c3ccccc3SCc3cccc(Br)c32)n2ccc(=O)c(O)c2C1=O)C(F)(F)F [Reference example 661]	14	135	
Cc1cccc2c1CCc1c(C)cccc1C2N1CN([C@H](C)C(F)(F)F)C(=O)c2c(O)c(=O)ccn21 [Reference example 632]	38	132	
C[C@@H](N1CN([C@@H]2c3ccccc3SCc3cccc(Cl)c32)n2ccc(=O)c(O)c2C1=O)C(F)(F)F [Reference example 429]	4		Parent compound BA(%) [2]: 13.3%
C[C@@H](N1CN(C2c3ccccc3CCc3cc(F)c(F)cc32)n2ccc(=O)c(O)c2C1=O)C(F)(F)F (stereo partly shown) [Reference example 636]	15	74	
O=C1c2c(O)c(=O)ccn2N(C2c3ccccc3CSc3ccccc32)CN1C1COC1 (stereo not shown) [Reference example 609]	25	53	
C[C@@H](N1CN(C(c2ccccc2Cl)c2ccccc2Cl)n2ccc(=O)c(O)c2C1=O)C(F)(F)F [Reference example 648]	59	132	
CC(=O)c1cn2c(c(O)c1=O)C(=O)N([C@H](C)C(F)(F)F)CN2[C@@H]1c2ccccc2SCc2c1ccc(F)c2F [compound 706]	7.19	18.6	
C[C@@H](N1CN([C@@H]2c3ccccc3SCc3cccc(Cl)c32)n2cc(Cl)c(=O)c(O)c2C1=O)C(F)(F)F [compound 762]	5.9	31.5	
Cc1cn2c(c(O)c1=O)C(=O)N([C@H](C)C(F)(F)F)CN2[C@@H]1c2ccccc2SCc2c1ccc(F)c2F [compound 704]	3.5	11.1	
CC(C)N1CN(C2c3ccccc3CSc3ccccc32)n2ccc(=O)c(O)c2C1=O (stereo not shown) [Reference example 301]			Parent compound BA(%) [2]: 2.3%
C#Cc1cccc2c1[C@H](N1CN([C@H](C)C(F)(F)F)C(=O)c3c(O)c(=O)ccn31)c1ccccc1SC2 [compound 730]	0.799	2.52	
C[C@@H](N1CN([C@@H]2c3ccccc3SCc3c2ccc(F)c3F)n2cc(Cl)c(=O)c(O)c2C1=O)C(F)(F)F [compound 716]	5.6		IC50 [3]: 5.54 nM
Cc1cccc2c1CSc1c(F)cccc1[C@H]2N1CN([C@H](C)C(F)(F)F)C(=O)c2c(O)c(=O)ccn21 [Reference example 617]	17	53	
C[C@@H](N1CN(C2c3ccc(F)cc3CCc3cc(F)ccc32)n2ccc(=O)c(O)c2C1=O)C(F)(F)F [Reference example 640]	6	57	
C[C@@H](N1CN([C@H]2c3cc(F)ccc3CSc3c(F)cccc32)n2ccc(=O)c(O)c2C1=O)C(F)(F)F [Reference example 656]	19	70	
